{
  "source": "patent EP0429333B1",
  "about": "“Process for producing oxazopyrroloquinolines, novel oxazopyrroloquinolines, and use of oxazopyrroloquinolines” (priority 1989, dated 1991)",
  "key": {"[1]": {"molecular_target": "T1, aldose reductase of rabbit lens (Oryctolagus cuniculus, UniProt P15122)", "T1 construct": "to obtain electrophoretically homogeneous aldose reductase; from tissue; host or cells: rabbit lens", "test": "Inhibitory effect on aldose reductase of lens", "type": "biochemical", "conditions": "read-out: Degree of inhibition for aldose reductase (%)", "protocol": "0.05 ml of 3mM NADPH, 0.1 ml of DL-glyceraldehyde and 0.04 ml of distilled water were added to 0.8 ml of 0.1M phosphoric acid buffer (pH 6.2) and left to stand at 25°C for 3 minutes. Then, 0.01 ml of the aldose reductase solution was added thereto to start reaction and decreasing of absorbance of 340 nm was measured at 25°C with time. Amount of enzyme which consumes 1 µmole of NADPH for 1 minute was taken as 1 unit.\nEnzyme activity was measured under the same conditions as in the above measurement of aldose reductase activity except that 0.04 ml of aqueous solution of inhibitory substance in various concentrations was added in place of 0.04 ml of distilled water and degree of inhibition was calculated from comparison of the enzyme activity with the enzyme activity obtained in the absence of inhibitor. (1) OPQ, (2) methyl OPQ, (3) 1-methylpropyl OPQ, (4) 2-methylpropyl OPQ, (5) 2-carbamoylethyl OPQ, (6) hydroxymethyl OPQ, (7) 2-methylthioethyl OPQ, (8) 2-carboxyethyl OPQ, (9) 4-hydroxybenzyl OPQ, (10) 1-methylethyl OPQ, and (11) benzyl OPQ were used as inhibition substances and (12) PQQ was used as control.\nLens of rabbit was homogenized with 10mM phosphoric acid buffer (pH 7.0) containing 2mM dithiothreitol in an amount of two times the volume of the lens and subjected to centrifugation. The supernatant liquid was purified by affinity chromatography, gel filtration and chromatofocusing to obtain electrophoretically homogeneous aldose reductase. Using (1) OPQ, (2) 1-methylpropyl OPQ, (3) 2-methylpropyl OPQ, (4) hydroxymethyl OPQ, and (5) 1-methylethyl OPQ as inhibition substances, degree of inhibition of these substances for aldose reductase of rabbit lens was examined in the same manner in Example 32."}, "B cell": {"tested_on": "B cell", "test": "Test on B cell blast transformation reaction, spleen cells of treated mice", "type": "in vivo, C3H/He mice", "conditions": "for Relative activity (%): no administration = 100", "protocol": "Cells of spleen of C3H/He mice to which OPQ was administered were obtained in the same manner as in Example 38.\nFurther, intake amount of ^3H-thymidine was examined in the same manner as in Example 38 except that 25 µg/ml or 50 µg/ml of lipopolysaccharide (LPS WE E. coli 0111, Difco) was used in place of the concanavalin A as mitogen. Values in the table are average values of intake amount (cpm) of ^3H in culture under four same conditions.\n(§1) In Examples 36 - 40, macrophage activity was examined according to chemotaxis of peritoneal macrophage (literature 1) and activity of T cell and that of B cell were examined according to blast transformation reaction using concanavalin A and lipopolysaccharide, (LPS) as mitogen (literature 2). Literature 1: \"Function of Macrophage and Method of Measurement of Function\", pages 61-65 1985), edited by Educational Committee of Japan Bacteriological Society and published from Saikon Shuppan Co.) Literature 2: \"New Method of Searching of Function of Lymphocytes\", pages 350-355 (1987) edited by Junichi Yada and Michio Fujiwara and published from Chugai Igaku Co."}, "T cell": {"tested_on": "T cell", "test": "Test on T cell blast transformation reaction (1), spleen cells of treated mice", "type": "in vivo, C3H/He mouse", "conditions": "for Relative activity (%): no administration = 100", "protocol": "In the same manner as in Example 36, OPQ was administered to C3H/He mouse and the mouse was bred. Dosage of OPQ for one administration per one mouse was 0.2 ml of OPQ solution containing 0.5 mg/ml of OPQ for group B and 0.2 ml of the solution containing 1.0 mg/ml of OPQ for group C and 0.2 ml of physiological saline was administered for group A.\nOn the 8th day from starting of experiment, mouse was anesthetized with ether and blood was drawn from carotid artery and spleen was aseptically extracted.\nCells of the spleen of respective groups were broken up and these cells were floated on tris-NH4Cl hemolytic solution warmed to 37°C and left for 5 minutes at 37°C to hemolyze erythrocytes, followed by washing twice with cold Hanks solution. The cells were suspended in RPMI medium at 4 x 10^6 cells/ml and the suspension was put in a flat bottom microplate of 96 holes. Culture was carried out in the air containing 5 % of CO2 at 37°C using concanavalin A (Type IV Sigma C2010) in an amount of 0.5 µg/ml or 2 µg/ml as mitogen. After 63 hours from starting of culture, ^3H-thymidine was added in an amount of 2.5 µci/ml and culturing was carried out for further 9 hours. Thereafter, cells were gathered on a glass fiber filter by cell harvester and ^3H on this filter was measured by a liquid scintillation counter.\nAs control, same four culturings were conducted under the same conditions without adding concanavalin A.\nValues in the table are average values of intake amount (cpm) of ^3H in culture under four same conditions.\nas §1"}, "cataract": {"tested_on": "cataract", "test": "Anti-cataract effect, intraperitoneal administration, 50 % galactose fed rats", "type": "in vivo, Sprague-Davley rats", "conditions": "2 mg, 5 mg, 10 mg and 20 mg per 1 kg of rat intraperitoneally once a day", "protocol": "Eightyfour male Sprague-Davley rats (supplied from Japan Charles Liver Co.) of four weeks old and having a body weight of 70 - 80 g were used and the following experiments were conducted. One group consisted of six rats.\nThe groups included normal group, 50 % galactose administration group, PQQ administration group, and OPQ administration group. Commercially available feeding stuff (manufactured by Japan Clea Co.) was given to the rats of normal group, and rats of 50 % galactose administration group, PQQ administration group and OPQ administration group were allowed to freely take powdery feeding stuff comprising a mixture of the above-mentioned commercially available powder feeding stuff and D-galactose for food additive in equal weight.\nTo the rats of PQQ and OPQ administration groups were intraperitoneally administered PQQ·2Na or OPQ in a dosage of 2 mg, 5 mg, 10 mg and 20 mg per 1 kg of rat once a day simultaneously with starting of galactose feeding and until termination of feeding.\nOn the 6th day and the 9th day from starting of experiment, eyeball was observed by stereoscopic microscope and judgment on cataract was made according to the following criteria. A0: No muddiness (normal) A1: Light white muddiness in the surface portion. A2: A slight heavy white muddiness in the surface portion. A3: Heavy white muddiness in the surface portion. A4: Heavy white muddiness in the surface portion and a slight white muddiness in the core portion. A5: Heavy white muddiness in the surface portion and the core portion."}},
  "data": [
    {"smiles": "O=C(O)c1cc(C(=O)O)c2c(n1)c1ncoc1c1cc(C(=O)O)[nH]c12", "note": "[OPQ, oxazopyrroloquinoline]", "values": [
      {"measurement": "inhibition at 0.1 µM", "setting": "[1]; concentration 1x10^-7 M", "value": 43.2, "unit": "%"},
      {"measurement": "inhibition at 0.2 µM", "setting": "[1]; concentration 2x10^-7 M", "value": 54.5, "unit": "%"},
      {"measurement": "inhibition at 0.5 µM", "setting": "[1]; concentration 5x10^-7 M", "value": 63.1, "unit": "%"},
      {"measurement": "inhibition at 0.05 µM", "setting": "[1]; concentration 5x10^-8 M", "value": 31, "unit": "%"},
      {"measurement": "Relative activity (%)", "setting": "B cell; 5mg/kg mouse x 7 days, Lipopolysaccharide 25 µg/ml", "value": 108, "unit": "%"},
      {"measurement": "Relative activity (%)", "setting": "B cell; 5mg/kg mouse x 7 days, Lipopolysaccharide 50 µg/ml", "value": 109, "unit": "%"},
      {"measurement": "intake amount (cpm) of ^3H", "setting": "B cell; 5mg/kg mouse x 7 days, Lipopolysaccharide (LPS) 0 µg/ml, no administration 6562", "value": 9303, "unit": "cpm"},
      {"measurement": "intake amount (cpm) of ^3H", "setting": "B cell; 5mg/kg mouse x 7 days, Lipopolysaccharide (LPS) 25 µg/ml, no administration 34557", "value": 37434, "unit": "cpm"},
      {"measurement": "intake amount (cpm) of ^3H", "setting": "B cell; 5mg/kg mouse x 7 days, Lipopolysaccharide (LPS) 50 µg/ml, no administration 42247", "value": 46193, "unit": "cpm"},
      {"measurement": "Relative activity (%)", "setting": "B cell; 10mg/kg mouse x 7 days, Lipopolysaccharide 25 µg/ml", "value": 121, "unit": "%"},
      {"measurement": "Relative activity (%)", "setting": "B cell; 10mg/kg mouse x 7 days, Lipopolysaccharide 50 µg/ml", "value": 126, "unit": "%"},
      {"measurement": "intake amount (cpm) of ^3H", "setting": "B cell; 10mg/kg mouse x 7 days, Lipopolysaccharide (LPS) 0 µg/ml, no administration 6562", "value": 9301, "unit": "cpm"},
      {"measurement": "intake amount (cpm) of ^3H", "setting": "B cell; 10mg/kg mouse x 7 days, Lipopolysaccharide (LPS) 25 µg/ml, no administration 34557", "value": 41876, "unit": "cpm"},
      {"measurement": "intake amount (cpm) of ^3H", "setting": "B cell; 10mg/kg mouse x 7 days, Lipopolysaccharide (LPS) 50 µg/ml, no administration 42247", "value": 53267, "unit": "cpm"},
      {"measurement": "Relative activity (%)", "setting": "T cell; 5 mg/kg mouse x 7 days, Concanavalin A 0.5µg/ml", "value": 137, "unit": "%"},
      {"measurement": "Relative activity (%)", "setting": "T cell; 5 mg/kg mouse x 7 days, Concanavalin A 2.0µg/ml", "value": 146, "unit": "%"},
      {"measurement": "intake amount (cpm) of ^3H", "setting": "T cell; 5 mg/kg mouse x 7 days, concanavalin 0 µg/ml, no administration 7312", "value": 10796, "unit": "cpm"},
      {"measurement": "intake amount (cpm) of ^3H", "setting": "T cell; 5 mg/kg mouse x 7 days, concanavalin 0.5 µg/ml, no administration 11637", "value": 15942, "unit": "cpm"},
      {"measurement": "intake amount (cpm) of ^3H", "setting": "T cell; 5 mg/kg mouse x 7 days, concanavalin 2 µg/ml, no administration 96188", "value": 140376, "unit": "cpm"},
      {"measurement": "Relative activity (%)", "setting": "T cell; 10 mg/kg mouse x 7 days, Concanavalin A 0.5µg/ml", "value": 189, "unit": "%"},
      {"measurement": "Relative activity (%)", "setting": "T cell; 10 mg/kg mouse x 7 days, Concanavalin A 2.0µg/ml", "value": 150, "unit": "%"},
      {"measurement": "intake amount (cpm) of ^3H", "setting": "T cell; 10 mg/kg mouse x 7 days, concanavalin 0 µg/ml, no administration 7312", "value": 9124, "unit": "cpm"},
      {"measurement": "intake amount (cpm) of ^3H", "setting": "T cell; 10 mg/kg mouse x 7 days, concanavalin 0.5 µg/ml, no administration 11637", "value": 21965, "unit": "cpm"},
      {"measurement": "intake amount (cpm) of ^3H", "setting": "T cell; 10 mg/kg mouse x 7 days, concanavalin 2 µg/ml, no administration 96188", "value": 144171, "unit": "cpm"},
      {"measurement": "rats died", "setting": "cataract", "value": "no rats died"}
    ]}
  ]
}
